The source of these data is patent publication USRE34387E, “Method for restoring depleted purine nucleotide pools” (priority 1988, dated 1993).

Series [1] concerns the target T1, adenylosuccinate lyase (cardiac muscle) (Mus musculus, UniProt P54822).
T1 construct: the hearts and gastrocnemius muscles were excised, weighed, and homogenized to a slurry; from tissue; host or cells: mouse heart (C57BL/6J), dialyzed 10,000×g supernatant
T1 sequence (P54822 2-484 limits assumed): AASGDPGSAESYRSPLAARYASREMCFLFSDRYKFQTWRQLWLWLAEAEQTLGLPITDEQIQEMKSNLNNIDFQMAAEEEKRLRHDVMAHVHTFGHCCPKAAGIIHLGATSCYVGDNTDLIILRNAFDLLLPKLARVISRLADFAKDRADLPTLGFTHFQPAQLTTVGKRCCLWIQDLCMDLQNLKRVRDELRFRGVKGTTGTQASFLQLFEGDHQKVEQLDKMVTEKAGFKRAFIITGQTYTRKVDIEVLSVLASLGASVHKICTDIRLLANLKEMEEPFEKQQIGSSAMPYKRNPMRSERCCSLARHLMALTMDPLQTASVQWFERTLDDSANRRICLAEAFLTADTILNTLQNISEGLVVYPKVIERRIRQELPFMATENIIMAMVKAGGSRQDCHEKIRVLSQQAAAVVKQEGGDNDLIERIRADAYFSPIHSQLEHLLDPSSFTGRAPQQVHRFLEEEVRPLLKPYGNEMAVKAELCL
Kind of series: Adenylosuccinate lyase assay, cardiac muscle enzyme. In kind it is biochemical, C57BL/6J mice. The conditions noted are these: pH 7.4, 25° C., 4 enzyme preparations, read-out: apparent Km of adenylosuccinate lyase for adenylosuccinate. On the procedure:
(§1) Preparation and Assay of Adenylosuccinate Lyase--Six-week-old C57BL/6J mice were killed, and the hearts and gastrocnemius muscles were excised, weighed, and homogenized to a slurry in 4 volumes of 50 mM Tris-HCl, pH 7.4 at 25° C. containing 1 mM EDTA and 1 mM β-mercaptoethanol in a TenBroeck glass homogenizer. The homogenate was centrifuged at 10,000×g for 15 min and the supernatant was dialyzed against 1,000 volumes of the extraction buffer for 2 h at 4° C. The lyase activity was partially stabilized by the addition of EDTA and β-mercaptoethanol, but some activity was lost even on storage at -70° C.
(§2) The assays were carried out at pH 7.4 were reaction mixtures that contained 50 mM Tris-HCl buffer, 1 mM EDTA, 1mM β-mercaptoethanol, 20 μM adenylosuccinate, and the enzyme extract (protein concentration, 0.13-0.20 mg/ml). The decrease in absorbance at 280 nm was measured using a Gilford recording spectrophotometer. All assays were done at 25° C. and were linear with respect to time of incubation and with the amount of protein in extract added to the assay.
(§3) These are average values for experiments with 4 separate enzyme preparations. The experimental points in the double reciprocal plots were fitted to the best line by the method of least squares with all points being weighted equally.

Series [2] addresses T2, adenylosuccinate lyase (skeletal muscle) (Mus musculus, UniProt P54822).
T2 construct: the hearts and gastrocnemius muscles were excised, weighed, and homogenized to a slurry; from tissue; host or cells: mouse gastrocnemius muscle (C57BL/6J), dialyzed 10,000×g supernatant
T2 sequence (P54822 2-484 limits assumed): T1 sequence (P54822 2-484 limits assumed)
Description: Adenylosuccinate lyase assay, skeletal muscle enzyme. Type of series: biochemical, C57BL/6J mice. The conditions noted are these: pH 7.4, 25° C., 4 enzyme preparations, read-out: apparent Km of adenylosuccinate lyase for adenylosuccinate. Here is the method: as §1, §2, §3

Another series relates to cardiovascular system. The conditions noted are these: cited from earlier work; for hemodynamic effects on the cardiovascular system: purine precursors previously used to restore ATP.
The target in series [3] is T1, adenylosuccinate lyase (cardiac muscle). The note with it: bifunctional enzyme; cited from earlier work.

As usually defined, the Km is the substrate concentration at which the rate is half of its maximum.

With `O=C(O)C[C@H](Nc1ncnc2c1ncn2[C@@H]1O[C@H](COP(=O)(O)O)[C@@H](O)[C@H]1O)C(=O)O` [adenylosuccinate], the Michaelis-Menten constant (Km) was 2.2 ± 0.3 µM in series [1] and 4.5 ± 1.5 µM in series [2].

Take `OC[C@H]1O[C@@H](n2cnc3c(O)ncnc32)[C@H](O)[C@@H]1O` [inosine]: in the series with cardiovascular system, the “hemodynamic effects on the cardiovascular system” value (from here on “hemodynamic effects”) is “deleterious hemodynamic effects”.

For `NC(=O)c1ncn([C@@H]2O[C@H](COP(=O)(O)O)[C@@H](O)[C@H]2O)c1N` [AICAR, 5-Amino-4-imidazolecarboxamide Ribotide], the “effect on both lyase activities of adenylosuccinate lyase” value in series [3] is reported as “inhibited by AICAR”.

Regarding `Nc1ncnc2c1ncn2[C@@H]1O[C@H](CO)[C@@H](O)[C@H]1O` [adenosine], the “hemodynamic status of the animal” value in the series with cardiovascular system (adenosine administration) is reported as “profound changes”. Moreover, the “hemodynamic effects” value in the series on cardiovascular system is reported as “deleterious hemodynamic effects”.

Consider `O=c1[nH]cnc2nc[nH]c12` [hypoxanthine], for which the “hemodynamic effects” value in the series with cardiovascular system was “deleterious hemodynamic effects”.
